From PubChem BioAssay (NCI)
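These data come from cells grown in 96-well plates and exposed to compound for 48 hours at five concentrations. TGI: total growth inhibition.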

What was measured:
Experiment in all cases: DTP human tumour cell line panel, 48 h
M19-MEL melanoma = tested on: M19-MEL melanoma
RXF-631 renal = tested on: RXF-631 renal
HOP-18 NSCLC = tested on: HOP-18 NSCLC
DLD-1 colon = tested on: DLD-1 colon
LXFL 529 NSCLC = tested on: LXFL 529 NSCLC
SNB-78 CNS = tested on: SNB-78 CNS
MDA-N = tested on: MDA-N

SMILES	TGI (M19-MEL melanoma) [µM]	TGI (RXF-631 renal) [µM]	TGI (HOP-18 NSCLC) [µM]	TGI (DLD-1 colon) [µM]	TGI (LXFL 529 NSCLC) [µM]	TGI (SNB-78 CNS) [µM]	TGI (MDA-N) [µM]
CN(/N=C/c1cccc2cccnc12)c1c([N+](=O)[O-])cc([N+](=O)[O-])cc1[N+](=O)[O-]	> 100	> 100	> 100	> 100	> 100	> 100	
CCCN(CCC)c1c([N+](=O)[O-])cc(C(=O)N(CCO)CCO)cc1[N+](=O)[O-]	> 100		> 100	> 100	> 100	> 100	
Cn1c(=O)c2[nH]cnc2n(CC(N)=O)c1=O	> 100			> 100	> 100	> 100	
CN(C)CCNC(=O)c1cccc2ccc(-c3ccc(-c4ccccc4)cc3)nc12	3.23	3.99	26.4	8.64	3.39	28.3	
O=C1c2ccccc2C(=O)c2c(NCC3CO3)ccc(NCC3CO3)c21 (stereo unspecified)							2.52
Cc1cc(O)c(/C=N/C(=S)Nc2ccccc2)c(=O)o1							> 100
N#Cc1ccc2cc3c(cc2c1)OCO3	> 100	> 100		> 100	> 100	> 100	
Clc1ccccc1C(Nc1ncccn1)Nc1ncccn1							> 100
COc1cccc2c1C(=O)OC2c1cccc2ccccc12 (stereo unspecified)	> 100		> 100	> 100	> 100	> 100	> 100
O=C(CCc1nnc2s/c(=C\c3ccccc3Cl)c(=O)n12)Nc1cc(Cl)ccc1Cl	> 100		> 100	> 100	> 100	> 100	
CC(=O)N(O)Cc1ccccc1	> 100	> 100		> 100	> 100	> 100	
CC12CCC3c4cc(Br)c(O)c(Br)c4CCC3C1CCC2O (stereo unspecified)							14.2
C#CC1(O)CCC2[C@@H]3CCc4cc(Oc5nc(F)nc(-c6c7ccccc7cn6C)n5)ccc4C3CC[C@@]21C (stereo partly specified)	> 100		> 100	> 73.5	> 100	> 100	
S=C=NCCc1ccccc1	2.95			0.324	0.774	5.78	
Cc1ccc(C)c(NC(=O)CC2SC(=Nc3ccccc3Cl)NC2=O)c1 (stereo unspecified)	> 100	> 100	> 100	> 100	> 100	> 100	
C=C(C)C(=O)O[C@@H]1C/C(C)=C\[C@H](OC(C)=O)C[C@](C)(O)/C=C2/OC(=O)C(COC(C)=O)=C21							1.98
Cc1nc2sccn2c1C(=O)NC(=O)Nc1ccc(Cl)cc1	> 100			> 100	> 100	> 100	
O=c1[nH]c(=O)n(C2CC(O)C(CO)O2)cc1C#Cc1ccc(F)cc1 (stereo unspecified)	> 100		> 100	> 100	> 100	> 100	
CCn1c2c(c3ccccc31)C(c1ccccc1)CC1C(=O)N(c3ccccc3)C(=O)C21 (stereo unspecified)	> 100			> 100	> 100	> 100	
Cc1ccc(NC(=O)/C(=N/N(C)C)C(C2OC(=O)c3ccccc32)[N+](=O)[O-])cc1 (stereo unspecified)							> 100
Cc1cc(=O)[nH]c(CNC(=O)c2cccc(C(=O)NCc3cc(=O)[nH]c(C)n3)c2)n1	> 100		> 100	> 100	> 100	> 100	
